According to publication PMC3507690, “A Single Glycine-Alanine Exchange Directs Ligand Specificity of the Elephant Progestin Receptor” (PLoS ONE, 2012):

Molecular target: T1, hPR LBD (initial construct) (Homo sapiens, UniProt P06401)
T1 construct: gene PGR; pET3d, E. coli BL21 lysate; cloned from HOSE cell cDNA
T1 sequence (P06401 634-933): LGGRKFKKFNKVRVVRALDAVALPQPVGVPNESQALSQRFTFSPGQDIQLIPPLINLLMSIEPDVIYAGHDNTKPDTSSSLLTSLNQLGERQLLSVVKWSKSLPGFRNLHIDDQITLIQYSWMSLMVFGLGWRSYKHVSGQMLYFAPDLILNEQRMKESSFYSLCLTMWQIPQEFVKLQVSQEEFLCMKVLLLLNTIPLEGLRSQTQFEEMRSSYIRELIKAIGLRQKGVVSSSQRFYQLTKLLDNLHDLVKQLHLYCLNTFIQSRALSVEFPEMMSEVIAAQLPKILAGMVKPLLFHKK
Experiment: competitive radioligand binding, charcoal separation, bacterial lysate
Details: 1 nM [3H]-progesterone, 16 h, 4 °C; relative binding affinity compared to progesterone

`CC(=O)[C@H]1CC[C@H]2[C@@H]3CC[C@H]4CC(=O)CC[C@]4(C)[C@H]3CC[C@]12C` [DHP, 5α-dihydroprogesterone] was tested, and the RBA was “relative binding affinity (RBA) of DHP compared to progesterone measured by competitive binding assays”.
